Measured values from patent US8829014B2, “Thiazole and thiophene analogues, and their use in treating autoimmune diseases and cancers” (Board of Supervisors of Louisiana State University and …, priority 2006, dated 2014).

Tested on: carageenan-induced edema
Test: Carrageenan-induced rat paw edema test (anti-inflammatory activity)
Format: in vivo, Sprague-Dawley rats
Settings: Rattus norvegicus, po, 3 h, rat paw edema, 50 mg/kg, reading 3 hours after carrageenan; [(Control−Test)/Control]×100%; read-out: % Protection P
Experimental: Sprague-Dawley rats, male and female, 150-250 g will be used in an edema test. Rats will be deprived of food but not water for 18 hours prior to the experiment. The test compounds will be administered with a blunt-tipped needle orally, 50 mg/kg, as a suspension in 0.1% sodium CMC (carboxymethylcellulose) vehicle. Alternatively, the test compounds will be injected intravenously, subcutaneously, or intraperitoneally. One hour later, 0.1 ml of a 1% carrageenan solution in saline will be injected in the sub-plantar region of the right hind paw of each rat. […] The reading will be repeated 3 hours later. The displacement readings give a measure of carageenan-induced edema. Any reduction in carageenan-induced edema with a test compound, as compared to saline control, is a measure of the anti-inflammatory activity of the test compound. The percentage protection at 50-mg/kg doses was calculated according to the following formula: % Protection=[(Control−Test)/Control]×100%.
Following treatment, the media from the VSMC and HUVEC incubations were removed, and the amount of lactate dehydrogenase (LDH) released into the medium was determined with a commercial kit and expressed as a % increase over vehicle-treated cells. HPT toxicity was determined by the ethidium homodimer (EthHD) uptake assay. […] The lead compounds were also tested in two pairs of cell lines from the skin or prostate, one tumorigenic and one non-tumorigenic, to test for differing toxicity or heightened sensitivity in the tumorigenic lines. The cells were treated for 48 h with vehicle (0.1% DMSO) or 10 μM of each drug candidate, and the viability of the cells was determined by the MTT assay, expressed as a % decrease in viability compared to vehicle-treated cells. The in vivo inflammation model measured the % inhibition of rat paw edema induced by carageenan injection.

Question: `CCN(CC)C(/C=N/C(=S)NC(=O)c1ccccc1)c1ccccc1` (stereo not drawn) [Example 38, 1-Benzoyl-3-[1-diethylamino-1-phenyl-eth-(E)-ylidene]-thiourea] was tested. Which inhibition in vivo at 50 mg/kg did it give?
Answer: 10.9%

Question: For `O=C(c1ccccc1)c1cc(-c2ccccc2)c(N2CCOCC2)s1` [Example 42, (5-Morpholin-4-yl-4-phenyl-thiophen-2-yl)-phenyl-methanone], which inhibition in vivo at 50 mg/kg is on record?
Answer: 53.5%

Question: With `O=C(c1ccc(Cl)cc1)c1cc(-c2ccccc2)c(N2CCOCC2)s1` [Example 45, (4-Chloro-phenyl)-(5-morpholin-4-yl-4-phenyl-thiophene-2-yl)-methanone] as the compound, how does the inhibition in vivo at 50 mg/kg read?
Answer: 53.5%

Question: With `O=C(c1cc(-c2ccccc2)c(N2CCOCC2)s1)c1ccc(Cl)cc1Cl` [Example 46, (2,4-Dichloro-phenyl)-(5-morpholin-4-yl-4-phenyl-thiophene-2-yl)-methanone] as the compound, how does the inhibition in vivo at 50 mg/kg read?
Answer: 68.3%

Question: For `CS(=O)(=O)c1ccc(C(=O)c2cc(-c3ccccc3)c(N3CCOCC3)s2)cc1` [Example 48, (4-Methylsulfonyl-phenyl)-(5-morpholin-4-yl-4-phenyl-thiophene-2-yl)-methanone], which inhibition in vivo at 50 mg/kg is on record?
Answer: 30%

Question: For `O=C(c1cccnc1)c1cc(-c2ccccc2)c(N2CCOCC2)s1` [Example 50, (5-Morpholin-4-yl-4-phenyl-thiophene-2-yl)-pyridine-3-yl-methanone], which inhibition in vivo at 50 mg/kg is on record?
Answer: 6.9%

Question: `CS(=O)(=O)c1ccc(-c2cc(C(=O)c3ccccc3)sc2N2CCOCC2)cc1` [Example 54, [4-(4-Methanesulfonyl-phenyl)-5-morpholin-4-yl-thiophene-2-yl]-phenyl-methanone] was tested. Which inhibition in vivo at 50 mg/kg did it give?
Answer: 17.8%

Question: For `Cc1ccc(C(=O)c2cc(-c3ccc(S(C)(=O)=O)cc3)c(N3CCOCC3)s2)cc1` [Example 55, [4-(4-Methanesulfonyl-phenyl)-5-morpholin-4-yl-thiophene-2-yl]-p-tolyl-methanone], which inhibition in vivo at 50 mg/kg is on record?
Answer: -13.5%

Question: How did the inhibition in vivo at 50 mg/kg turn out when `CS(=O)(=O)c1ccc(-c2cc(C(=O)c3ccc(Cl)cc3)sc2N2CCOCC2)cc1` [Example 57, (4-Chloro-phenyl)-[4-(4-methanesulfonyl-phenyl)-5-morpholin-4-yl-thiophen-2-yl]-methanone] was run?
Answer: 26.9%

Question: Which inhibition in vivo at 50 mg/kg does the source give for `CS(=O)(=O)c1ccc(-c2cc(C(=O)c3ccc(Cl)cc3Cl)sc2N2CCOCC2)cc1` [Example 58, (2,4-Dichloro-phenyl)-[4-(4-methanesulfonyl-phenyl)-5-morpholin-4-yl-thiophen-2-yl]-methanone] here?
Answer: 50%

Question: How did the inhibition in vivo at 50 mg/kg turn out when `CSc1ccc(C(=O)c2cc(-c3ccc(S(C)(=O)=O)cc3)c(N3CCOCC3)s2)cc1` [Example 59, [4-(4-Methanesulfonyl-phenyl)-5-morpholin-4-yl-thiophene-2-yl]-(4-methylsulfanyl-phenyl)-methanone] was run?
Answer: 45.8%

Question: `CS(=O)(=O)c1ccc(C(=O)c2cc(-c3ccc(S(C)(=O)=O)cc3)c(N3CCOCC3)s2)cc1` [Example 60, (4-Methanesulfonyl-phenyl)-[4-(4-methansulfonyl-phenyl)5-morpholin-4-yl-thiophene-2-yl]-methanone] was tested. Which inhibition in vivo at 50 mg/kg did it give?
Answer: 59.9%

Question: Which inhibition in vivo at 50 mg/kg does the source give for `CC(=O)Nc1ccc(C(=O)c2cc(-c3ccc(S(C)(=O)=O)cc3)c(N3CCOCC3)s2)cc1` [Example 61, N-{4-[4-(4-Methansulfonyl-phenyl)-5-morpholin-4-yl-thiophene-2carbonyl]-phenyl}-acetamide] here?
Answer: 25%

Question: `CS(=O)(=O)c1ccc(-c2cc(C(=O)c3cccnc3)sc2N2CCOCC2)cc1` [Example 62, [4-(4-Methanesulfonyl-phenyl)-5-morpholin-4-yl-thiophene-2-yl]-pyridin-3-yl-methanone] was tested. Which inhibition in vivo at 50 mg/kg did it give?
Answer: 0%

Question: Which inhibition in vivo at 50 mg/kg does the source give for `CC(=O)Nc1ccc(-c2cc(C(=O)c3ccc(C)cc3)sc2N2CCOCC2)cc1` [Example 67, N-{4-[5-(4-Methyl-benzoyl)-2-morpholin-4-yl-thiophene-3-yl]-phenyl}-acetamide] here?
Answer: 7.67%

Question: For `COc1ccc(C(=O)c2cc(-c3ccc(NC(C)=O)cc3)c(N3CCOCC3)s2)cc1` [Example 68, N-{4-[5-(4-Methoxy-benzoyl)-2-morpholin-4-yl-thiophene-3-yl]-phenyl}-acetamide], which inhibition in vivo at 50 mg/kg is on record?
Answer: 40%

Question: Which inhibition in vivo at 50 mg/kg does the source give for `CC(=O)Nc1ccc(-c2cc(C(=O)c3ccc(Cl)cc3)sc2N2CCOCC2)cc1` [Example 69, N-{4-[5-(4-Chloro-benzoyl)-2-morpholin-4-yl-thiophene-3-yl]-phenyl}-acetamide] here?
Answer: -21.8%

Question: How did the inhibition in vivo at 50 mg/kg turn out when `CC(=O)Nc1ccc(-c2cc(C(=O)c3ccc(S(C)(=O)=O)cc3)sc2N2CCOCC2)cc1` [Example 72, N-{4-[5-(4-Methansulfonyl-benzoyl)-2-morpholin-4-yl-thiophene-3-yl]-phenyl}-acetamide] was run?
Answer: 50%

Question: How did the inhibition in vivo at 50 mg/kg turn out when `CC(=O)Nc1ccc(-c2cc(C(=O)c3cccnc3)sc2N2CCOCC2)cc1` [Example 74, N-{4-[2-Morpholin-4-yl-5-(pyridine-3-carbonyl)-thiophene-3-yl]-phenyl}-acetamide] was run?
Answer: 34%

Question: With `O=C(c1ccccc1)c1cc(-c2ccc(Cl)cc2)c(N2CCOCC2)s1` [Example 78, [4-(4-Chloro-phenyl)-5-morpholin-4-yl-thiophen-2-yl]-phenyl-methanone] as the compound, how does the inhibition in vivo at 50 mg/kg read?
Answer: -48.3%

Question: Which inhibition in vivo at 50 mg/kg does the source give for `Cc1ccc(C(=O)c2cc(-c3ccc(Cl)cc3)c(N3CCOCC3)s2)cc1` [Example 79, [4-(4-Chloro-phenyl)-5-morpholin-4-yl-thiophen-2-yl]-p-tolyl-methanone] here?
Answer: -31%

Question: `O=C(c1ccc(Cl)cc1)c1cc(-c2ccc(Cl)cc2)c(N2CCOCC2)s1` [Example 81, (4-Chloro-phenyl)-[4-(4-chloro-phenyl)-5-morpholin-4-yl-thiophen-2-yl]-methanone] was tested. Which inhibition in vivo at 50 mg/kg did it give?
Answer: 20%

Question: With `O=C(c1ccncc1)c1cc(-c2ccc(Cl)cc2)c(N2CCOCC2)s1` [Example 87, [4-(4-Chloro-phenyl)-5-morpholin-4-yl-thiophen-2-yl]-pyridin-4-yl-methanone] as the compound, how does the inhibition in vivo at 50 mg/kg read?
Answer: 35%

Question: How did the inhibition in vivo at 50 mg/kg turn out when `COc1c(C)cc(-c2cc(-c3cccnc3)c(N3CCOCC3)s2)nc1C` [Example 88, 4-[5-(5-Methoxy-4,6-dimethyl-pyridin-2-yl)-3-pyridin-3-yl-thiophen-2-yl]-morpholine] was run?
Answer: -18.1%

Question: `COc1ccc(C(=O)c2cc(-c3cccnc3)c(N3CCOCC3)s2)cc1` [Example 92, (4-Methoxy-phenyl)-(5-morpholin-4-yl-4-pyridin-3-yl-thiophen-2-yl)methanone] was tested. Which inhibition in vivo at 50 mg/kg did it give?
Answer: 69%

Question: Which inhibition in vivo at 50 mg/kg does the source give for `O=C(c1ccc(Cl)cc1)c1cc(-c2cccnc2)c(N2CCOCC2)s1` [Example 93, (4-Chloro-phenyl)-(5-morpholin-4-yl-4-pyridin-3-yl-thiophen-2-yl)-methanone] here?
Answer: 0%

Question: With `O=C(c1cc(-c2cccnc2)c(N2CCOCC2)s1)c1ccc(Cl)cc1Cl` [Example 94, (2,4-Dichloro-phenyl)-(5-morpholin-4-yl-4-pyridin-3-yl-thiophen-2-yl)-methanone] as the compound, how does the inhibition in vivo at 50 mg/kg read?
Answer: -51.4%

Question: For `CC(=O)Nc1ccc(C(=O)c2cc(-c3cccnc3)c(N3CCOCC3)s2)cc1` [Example 97, N-[4-(5-Morpholin-4-yl-4-pyridin-3-yl-thiophen-2-carbonyl)-phenyl]-acetamide], which inhibition in vivo at 50 mg/kg is on record?
Answer: 46.8%

Question: `O=C(c1cccnc1)c1cc(-c2cccnc2)c(N2CCOCC2)s1` [Example 98, (5-Morpholin-4-yl-4-pyridin-3-yl-thiophen-2-yl)-pyridin-3-yl-methanone] was tested. Which inhibition in vivo at 50 mg/kg did it give?
Answer: 42%

Question: Which inhibition in vivo at 50 mg/kg does the source give for `O=C(c1ccncc1)c1cc(-c2cccnc2)c(N2CCOCC2)s1` [Example 99, (5-Morpholin-4-yl-4-pyridin-3-yl-thiophen-2-yl)-pyridin-4-yl-methanone] here?
Answer: 26%

Same assay, conditions: rat paw edema, 50 mg/kg, reading 3 hours after carrageenan; [(Control−Test)/Control]×100%

Question: For “4-[3-Phenyl-5-(4,5,6-trimethoxy-pyridine-2-yl)-thiophen-2-yl]-morpholine [Example 39]”, which “% Protection P” value is on record?
Answer: 19.65%

Question: For “4-{3-(4-Chloro-phenyl)-5-[5-methyl-4-(2,2,2-trifluoro-ethoxy)-pyridin-2-yl]-thiophen-2-yl}-morpholine [Example 77]”, which “% Protection P” value is on record?
Answer: 23%

Question: With “4-{5-[5-Methyl5-(2,2,2-trifluoro-ethoxy)-pyridin-2-yl]-3-pyridin-4-yl-thiphen-2-yl}-morpholine [Example 101]” as the compound, how does the “% Protection P” value read?
Answer: 47%

Question: With “4-{5-[5-Methyl-5-(2,2,2-trifluoro-ethoxy)-pyridin-2-yl]-3-pyridin-3-yl-thiphen-2-yl}-morpholine [Example 89]” as the compound, how does the “% Protection P” value read?
Answer: −18.05%

Question: With `CC(=O)Nc1ccc(-c2cc(C(=O)c3cc(OCC(F)(F)F)c(C)cn3)sc2N2CCOCC2)cc1` [Example 65, N(4-{5-[5-Methyl-4-(2,2,2-trifluoro-ethoxy)-pyridine-2-carbonyl]-2-morpholin-4-yl-thiophen-3-yl}-phenyl)-acetamide] as the compound, how does the “% Protection P” value read?
Answer: 30%

Question: With `CSc1ccc(C(=O)c2cc(-c3ccc(Cl)cc3)c(N3CCOCC3)s2)cc1` [Example 83, [4-(4-Chloro-phenyl)-5-morpholin-4-yl-thiophen-2-yl]-(4-methansulfanyl-phenyl)-methanone] as the compound, how does the “% Protection P” value read?
Answer: 27%
